Source: US9315546B2, “Growth hormone secretatogue receptor antagonists and uses thereof” (The Administrators of the Tulane Educational Fund, priority 2010, dated 2016)
Where a SMILES comes first, the peptide text is derived from it. Where no end group is shown, it is not given here. [ ]: non-standard residue; d: D form. The star is where a group is joined. d2Nal = N[C@H](Cc1ccc2ccccc2c1)C(=O)O; Octanoyl = CCCCCCCC(=O)*; Dap = NC[C@H](N)C(=O)O

Columns and labels:
GOAT = target: T1, GOAT (Homo sapiens, UniProt Q96T53); test: Acyl Transferase activity of GOAT in vitro; format: biochemical
T1 sequence (Q96T53 1-435): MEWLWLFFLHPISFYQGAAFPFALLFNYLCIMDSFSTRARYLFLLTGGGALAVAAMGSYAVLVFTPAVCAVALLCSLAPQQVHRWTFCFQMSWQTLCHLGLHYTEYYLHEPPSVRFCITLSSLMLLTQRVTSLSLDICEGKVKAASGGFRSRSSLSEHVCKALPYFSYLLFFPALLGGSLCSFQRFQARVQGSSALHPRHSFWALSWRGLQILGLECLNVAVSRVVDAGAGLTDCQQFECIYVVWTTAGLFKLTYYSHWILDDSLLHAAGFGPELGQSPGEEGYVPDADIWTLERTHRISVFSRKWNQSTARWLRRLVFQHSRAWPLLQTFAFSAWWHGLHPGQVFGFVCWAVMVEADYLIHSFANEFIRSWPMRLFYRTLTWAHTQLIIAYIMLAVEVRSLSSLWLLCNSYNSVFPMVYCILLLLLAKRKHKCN

[1] = target: T2, hypothalamic ghrelin receptor (Rattus norvegicus, UniProt O08725); test: Spontaneous and ghrelin-stimulated GH secretion after icv ghrelin analogs in adult male rats; format: in vivo; set-up: from tissue; host or cells: whole animal (adult male rats); conditions: for spontaneous growth hormone secretion / plasma GH levels: ghrelin analog 10 μg icv, 6-h sampling
Method: (§1) In vivo effects were measured on spontaneous and ghrelin-stimulated GH secrtion over a 6-h sampling period, and food intake monitored hourly over a 5-h period and body weight change over 24 h.

[2] = target: T2, hypothalamic ghrelin receptor; test: Food intake and body weight change after icv ghrelin analogs in adult male rats; format: in vivo; set-up: from tissue; host or cells: whole animal (adult male rats); conditions: ghrelin analog 10 μg icv; for body weight gain: change over 24 h; for (cumulative) food intake: monitored hourly over 5 h
Method: as §1

[3] = target: T3, Ghrelin/GHRP/GHS Receptor (Rattus norvegicus, UniProt O08725); test: GH release from isolated pituitary glands, pituitary incubation method; format: cell-based
Method: Hormonal activities were obtained from in vitro studies using pituitaries of 20 day old CD-1 strain Sprague Dawley female rats. Two pituitaries were incubated for a total of 4-6 hours. Medium was removed each hour for RIA of GH level and fresh medium was added again. After two one hour preincubation periods (P1-P2), the vehicle/peptides were added to two one hour incubations (I3-I4). Peptide activity was calculated as the change in the hormonal level (delta) between I3+I4 and P2. For antagonist activity, the incubation was continued for 2 additional hours (I5-I6) where both the peptide and a stimulator of GH secretion was added and the antagonist activity was calculated as the change in the hormonal level (delta) between I5+I6 and P2. The peptides were assayed in triplicate and the hormone was assayed in duplicate. Each value recorded represents the mean of 6. The GH RIA reagents were distributed by the NIH. Control data was collected from isolated pituitary glands treated with only the corresponding vehicle in the absence of peptide or stimulator. Control stimulated data was collected from isolated pituitary glands treated with stimulator alone in the absence of any peptide.

[4] = target: T3, Ghrelin/GHRP/GHS Receptor; test: In vivo GH release in rat after i.v. peptide (serum GH by RIA)
Method: For the in vivo assay of GH Release in rat, immature female Sprague Dawley rats were obtained from Charles River from Wilmington, Mass. After arrival they were housed at 25° C. with a 14:10 h light:dark cycle. Water and Purina rat chow were available at libitum. Pups were weaned at 21 days of age.
Immature twenty six day old female Sprague Dawley rats, 3-6 rats per treatment dose, were pretreated with pentobarbital 20 minutes before iv injection of vehicle/peptide or peptide plus stimulator. Injection was made as a 0.1 ml solution. For the non-pentobarbital treated rat assay, peptides were administered iv into the tail vein of conscious rats. All animals were sacrificed by guillotine after iv peptide or vehicle. Trunk blood was collected at +10-15 minutes […], allowed to clot, centrifuged and serum stored until assayed for GH levels by RIA. The GH RIA reagents were distributed by the NIH. Control data was collected from rats treated with only the corresponding vehicle in the absence of peptide or stimulator. Control stimulated data was collected from rats treated with stimulator alone in the absence of any peptide.

GHS-R 1a [5] = target: T4, GHS-R 1a (Rattus norvegicus, UniProt O08725); test: Ghrelin-induced GH release in free-moving adult male rats; format: in vivo; conditions: for GH response to i.c.v. ghrelin: 5 μg antagonist i.c.v. 15 min before 500 ng ghrelin i.c.v.
T4 construct: free-moving rats were i.c.v. injected with either normal saline or GHS-A (5 μg); from tissue; host or cells: whole animal (adult male Sprague Dawley rats)
Method: Adult male Sprague Dawley rats (225-260 g) were purchased from Charles River Canada (St. Constant, Canada) and individually housed on a 12-h light, 12-h dark cycle (lights on, 0600-1800 h) in a temperature (22±1° C.)—and humidity-controlled room. Purina rat chow (Ralston Purina Co., St. Louis, Mo.) and tap water were available ad libitum. Chronic intracerebroventricular (i.c.v.) and intracardiac venous cannulas were implanted under sodium pentobarbital (50 mg/kg, i.p.) anesthesia using previously described techniques in (2) and (11). […] During this time the rats were handled daily to minimize any stress associated with handling on the day of the experiment. On the test day, food was removed 1.5 h before the start of sampling and was returned at the end. […] Both the human ghrelin peptide (provided by Dr. K. Chang, Phoenix Pharmaceuticals, Inc., Belmont, Calif.) and the GHS-A were diluted in normal saline just before use. Blood samples (0.35 ml) were withdrawn every 15 min over a 6-h sampling period (1000-1600 h) from all animals. […] All blood samples were immediately centrifuged, and plasma was separated and stored at −20° C. for subsequent assay of GH. To avoid hemodynamic disturbance, the red blood cells were resuspended in normal saline and returned to the animal after removal of the next blood sample. […] Blood samples were withdrawn from 1000-1600 h, as described above.

GHS-R 1a [6] = target: T4, GHS-R 1a; test: Spontaneous pulsatile GH secretion in free-moving adult male rats; format: in vivo
Method: Adult male Sprague Dawley rats (225-260 g) were purchased from Charles River Canada (St. Constant, Canada) and individually housed on a 12-h light, 12-h dark cycle (lights on, 0600-1800 h) in a temperature (22±1° C.)—and humidity-controlled room. Purina rat chow (Ralston Purina Co., St. Louis, Mo.) and tap water were available ad libitum.
Chronic intracerebroventricular (i.c.v.) and intracardiac venous cannulas were implanted under sodium pentobarbital (50 mg/kg, i.p.) anesthesia using previously described techniques in (2) and (11). The placement of the icy cannulae was verified by both a positive drinking response to i.c.v. carbachol (100 ng/10 μl) injection on the day after surgery and methylene blue dye at the time of death. After surgery, the rats were placed directly in isolation test chambers with food and H2O freely available until body weight returned to preoperative levels (usually within 5-7 d). During this time the rats were handled daily to minimize any stress associated with handling on the day of the experiment. On the test day, food was removed 1.5 h before the start of sampling and was returned at the end.
These time points were chosen because they correspond closely to the time of onset of the spontaneous GH secretory episodes, as previously documented in our laboratory (2, 4). Blood samples were withdrawn from 1000-1600 h, as described above; however, no blood sample was withdrawn 5 min after the injections.

GHS-R 1a [7] = target: T4, GHS-R 1a; test: Spontaneous and ghrelin-induced food intake in rats; format: in vivo
Method: The effects of the GHS-A on both spontaneous and ghrelin-induced food intake and body weight gain were investigated. For the spontaneous experiments, the rats were fasted overnight (1600-1100 h next morning) and were i.c.v.-injected with either normal saline or GHS-A (5 μg) at 1100 h. Food intake was monitored on an hourly basis for 5 h after the initial injection (until 1600 h) and subsequently overnight (1600-0900 h next morning). A measured amount of rat chow pellets was placed in the cage every hour. Spillage was collected by placement of a diaper under the rat cages, and total food consumed for each period was calculated by subtracting uneaten food plus spillage from total given. Body weights were recorded daily at 0900 h. The latency to the onset of the first meal after the injection and the duration of that meal were also monitored.
Food intake was monitored on an hourly basis as described above. In this experiment, food was removed 1.5 h before the start of the test.

GHRH = test: GH response to GHRH in rats; format: in vivo, rat; conditions: GHRH 5 μg i.v.
[8] = listed as Gly-Met-Ala-Gly-Ser-(Dap-Oct)-Phe-Leu-Ser-Pro-Glu-His-NH2
[9] = listed as GMA{Dap^3Oct}ghrelinNH2 1-9
[10] = peptide antagonist 30 μg/ml + stimulator His-DTrp-Ala-Trp-DPhe-Lys-NH2 10 ng/ml
[11] = 5 μg i.c.v. before ghrelin 500 ng i.c.v.
[12] = 5 μg i.c.v., overnight-fasted animals

T4 sequence (O08725 whole entry): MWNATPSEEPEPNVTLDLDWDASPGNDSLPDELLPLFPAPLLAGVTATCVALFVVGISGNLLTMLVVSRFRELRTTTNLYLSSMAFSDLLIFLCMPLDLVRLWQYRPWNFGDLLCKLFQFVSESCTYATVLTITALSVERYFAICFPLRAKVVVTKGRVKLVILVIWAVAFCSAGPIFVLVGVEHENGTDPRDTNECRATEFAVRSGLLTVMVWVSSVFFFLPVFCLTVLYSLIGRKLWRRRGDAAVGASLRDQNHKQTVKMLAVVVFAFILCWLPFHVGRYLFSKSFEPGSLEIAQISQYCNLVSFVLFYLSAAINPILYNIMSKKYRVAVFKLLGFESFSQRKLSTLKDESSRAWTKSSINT
T2 sequence (O08725 whole entry): as above
T3 sequence (O08725 whole entry): as above

Compound: CCCCCCCC(=O)NC[C@H](NC(=O)[C@H](CO)NC(=O)CNC(=O)[C@H](C)NC(=O)[C@H](CCSC)NC(=O)CN)C(=O)N[C@@H](Cc1ccccc1)C(=O)N[C@@H](CC(C)C)C(=O)N[C@@H](CO)C(=O)N1CCC[C@H]1C(=O)N[C@@H](CCC(=O)O)C(=O)N[C@@H](Cc1c[nH]cn1)C(N)=O [#3, Gly-Met-Ala-Gly-Ser-(Dap-Oct)-Phe-Leu-Ser-Pro-Glu-His-NH2] (H-GMAGS[Dap](Octanoyl)FLSPEH-NH2; N-terminus assumed)
- inhibition of the Acyl Transferase activity of GOAT (GOAT): ineffective
- decrease in mean plasma GH levels compared with controls ([1]; central administration): 3-to-4 fold
- spontaneous growth hormone secretion / plasma GH levels [1]: inhibited growth hormone secretion
- spontaneous growth hormone secretion / plasma GH levels ([1]; listed as GMA duodecapeptide ghrelin analog): inhibitory activity
- spontaneous growth hormone secretion / plasma GH levels [1, 8]: inhibited
- stimulatory action of ghrelin on GH release after pretreatment ([1]; pretreatment with analog): blocked
- body weight gain [2, 9]: inhibits
- body weight gain ([2]; listed as duodecapeptide): effective
- (cumulative) food intake [2]: inhibited food intake
- (cumulative) food intake [2, 9]: inhibits
- (cumulative) food intake [2, 8]: reduced
- (cumulative) food intake ([2]; listed as duodecapeptide): effective

Compound: H[dW][dK]W[dF]K-NH2 [6-His-DTrp-DLys-Trp-DPhe-Lys-NH2]
- Stimulated GH release ([3]; peptide antagonist 1 μg/ml + stimulator His-DTrp-Ala-Trp-DPhe-Lys-NH2 10 ng/ml): 324 ± 181 ng/mL

Compound: Y[dW][dW]FF-NH2 [12-Tyr-DTrp-DTrp-Phe-Phe-NH2]
- Stimulated GH release [3, 10]: -167 ± 157 ng/mL

Compound: DesaminoTyr-DTrp-Ser-Trp-DPhe-NH2 [10-DesaminoTyr-DTrp-Ser-Trp-DPhe-NH2]
- Stimulated GH release [3, 10]: 3258 ± 682 ng/mL

Compound: H[d2Nal][dK]W[dF]K-NH2 [4-His-DβNal-DLys-Trp-DPhe-Lys-NH2]
- Stimulated GH release ([4]; peptide antagonist 30 μg i.v. + stimulator 0.3 μg): 733 ± 85 ng/mL
- Stimulated GH release ([4]; peptide antagonist 100 μg i.v. + stimulator 1 μg): 818 ± 269 ng/mL
- GH response to i.c.v. ghrelin (GHS-R 1a [5]): virtually obliterated
- GH response to i.c.v. ghrelin (GHS-R 1a [5]; listed as GHS-A): abolished
- reduction of GH AUC following i.c.v. ghrelin vs saline-pretreated controls (GHS-R 1a [5]; 5 μg i.c.v. pretreatment, ghrelin 500 ng i.c.v.): 15 fold
- GH response to i.v. ghrelin (GHS-R 1a [5]; 250 μg antagonist i.v. 15 min before 5 μg ghrelin i.v., listed as GHS-A): strongly blocked
- reduction of GH AUC following i.v. ghrelin vs saline-pretreated controls (GHS-R 1a [5]; 250 μg i.v. pretreatment, ghrelin 5 μg i.v.): 5 fold
- 1-h GH AUC's of spontaneous GH secretory episodes (1100 h, 1400 h) and overall 6-h GH AUC (GHS-R 1a [6]; 5 μg i.c.v.): significantly reduced
- GH peak frequency, interpeak interval and nadir (cluster analysis) (GHS-R 1a [6]; 5 μg i.c.v.): no significant effect
- GH peak height (cluster analysis) (GHS-R 1a [6]; 5 μg i.c.v.): significant suppression
- amplitude of the spontaneous GH pulses (GHS-R 1a [6]; 5 μg i.c.v. 15 min before expected GH bursts): severely attenuated
- cumulative food intake after ghrelin, up to 5 h (GHS-R 1a [7]; [11]): significantly suppressed
- ghrelin-stimulated food intake, first hour after injections (GHS-R 1a [7]; [11]): significantly inhibited
- cumulative spontaneous food intake beyond the first hour (GHS-R 1a [7]; [12]): not inhibited
- spontaneous food intake, first hour after injection (GHS-R 1a [7]; [12]): significantly inhibited
- GH response to GHRH (GHRH): did not significantly reduce

Compound: Y[dW]AW[dF]-NH2 [reference compound]
- Stimulated Control GH release (stimulator *S alone) ([3]; Table 12, *S = Tyr-DTrp-Ala-Trp-DPhe-NH2 0.3 μg/ml): 2218 ± 194 ng/mL
